According to ChEMBL document CHEMBL1144640, “Novel pyrazole derivatives as potent inhibitors of type II topoisomerases. Part 1: synthesis and preliminary SAR analysis” (Bioorg Med Chem Lett, 2007):
In brackets after ≈: the same amount, converted by molar mass.

Key:
[1] = Inhibition of bacterial DNA gyrase; parameters: species or system Bacteria
Escherichia coli = test: Antibacterial activity against Escherichia coli KL16; assay type: functional
Staphylococcus aureus = test: Antibacterial activity against Staphylococcus aureus ATCC 13709; assay type: functional
Streptococcus pneumoniae = test: Antibacterial activity against Streptococcus pneumonia ATCC 49619; assay type: functional
[2] = Inhibition of bacterial topoisomerase 4; parameters: species or system Bacteria

IC50 [1] [µg/mL]	MIC (Escherichia coli) [µg/mL]	MIC (Staphylococcus aureus) [µg/mL]	MIC (Streptococcus pneumoniae) [µg/mL]	Compound	IC50 [2] [µg/mL]
> 8	> 128	> 128	> 128	COc1ccc2nccc(-n3cc4c(n3)CCN(Cc3ccc5c(c3)OCCO5)C4)c2c1	
1 (≈ 2.06 µM)	4 (≈ 8.24 µM)	4 (≈ 8.24 µM)	2 (≈ 4.12 µM)	COc1ccc2nccc(-n3cc4c(n3)CCC(NC(=O)c3ccc5c(c3)NC(=O)CS5)C4)c2c1 (stereo not given)	0.125 (≈ 0.257 µM)
> 8	> 128	> 128	> 128	COc1ccc2nccc(-n3ncc4c3CCN(Cc3ccc5c(c3)OCCO5)C4)c2c1	
0.06 (≈ 0.123 µM)	128 (≈ 263 µM)	0.125 (≈ 0.257 µM)	4 (≈ 8.22 µM)	COc1ccc2nccc(-n3cc4c(n3)CCC(NC(=O)c3ccc5c(c3)NC(=O)CS5)C4)c2n1 (stereo not given)	0.25 (≈ 0.514 µM)
> 8	8 (≈ 16.5 µM)	8 (≈ 16.5 µM)	4 (≈ 8.24 µM)	COc1ccc2nccc(-n3cc4c(n3)CC(NC(=O)c3ccc5c(c3)NC(=O)CS5)CC4)c2c1 (stereo not given)	0.5 (≈ 1.03 µM)
> 8	> 128	16 (≈ 36.2 µM)	32 (≈ 72.3 µM)	COc1ccc2nccc(-n3ncc4c3CCC(NCc3ccc5c(c3)OCCO5)C4)c2c1 (stereo not given)	
2 (≈ 4.24 µM)	> 128	> 128	> 128	COc1ccc2nccc(-n3ncc4c3CCC(NCc3ccc5c(c3)NC(=O)CS5)C4)c2c1 (stereo not given)	
0.25 (≈ 0.514 µM)	2 (≈ 4.11 µM)	1 (≈ 2.06 µM)	2 (≈ 4.11 µM)	COc1ccc2nccc(-n3cc4c(n3)CCN(C(=O)c3ccc5c(c3)NC(=O)CS5)CC4)c2n1	

Compound	IC50 [1] [µg/mL]	MIC (Escherichia coli) [µg/mL]	MIC (Staphylococcus aureus) [µg/mL]	MIC (Streptococcus pneumoniae) [µg/mL]	IC50 [2] [µg/mL]
COc1ccc2nccc(-n3cc4c(n3)CCC(NCc3ccc5c(c3)NC(=O)CS5)C4)c2c1 (stereo not given)	0.25 (≈ 0.53 µM)	2 (≈ 4.24 µM)	0.25 (≈ 0.53 µM)	0.5 (≈ 1.06 µM)	0.03 (≈ 0.0636 µM)
COc1ccc2nccc(-n3cc4c(n3)CCC(NCc3ccc5c(c3)NC(=O)CS5)C4)c2n1 (stereo not given)	0.25 (≈ 0.529 µM)	1 (≈ 2.12 µM)	0.25 (≈ 0.529 µM)	2 (≈ 4.23 µM)	0.016 (≈ 0.0339 µM)
COc1ccc2nccc(-n3cc4c(n3)CCC(NCc3ccc5c(c3)OCCO5)C4)c2c1 (stereo not given)	2 (≈ 4.52 µM)	64 (≈ 145 µM)	0.5 (≈ 1.13 µM)	0.5 (≈ 1.13 µM)	0.06 (≈ 0.136 µM)
